What all share (test): growth of human tumour cells (NCI), 48 h
Experiment [1] has as its system SF-295 CNS.
In experiment [2] the test system is SF-268 CNS.
Experiment [3] relates to UACC-257 melanoma.
The test system of experiment [4] is OVCAR-8 ovarian.
The subject of experiment [5] is SW-620 colon.
In experiment [6] the test system is A549 NSCLC.
The subject of experiment [7] is UO-31 renal.
For experiment [8], the system named is MDA-MB-435.
For experiment [9], the system named is HS 578T breast.

Molecules are shown by their SMILES.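 Each compound was tested at five concentrations against cells in 96-well plates for 48 hours. The concentration for 50% growth inhibition is given as GI50. Definition used: TGI = concentration required for complete inhibition of growth.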 A value given as a limit tells only on which side of the number the result lay.

Take `O=c1c(Cc2ccccc2)c(O)cc2n1CCC2`: the TGI in experiment [1], in experiment [2], in experiment [3], in experiment [4], in experiment [5] and in [6] was greater than 100 µM throughout. For the same molecule, in experiment [7], the TGI is greater than 100 µM.
Take `O=c1[nH]ccc(CNC23CC4CC(CC(C4)C2)C3)c1O`: the TGI in [1], in [3], in [4], in experiment [5], in experiment [6] and in [7] was greater than 100 µM throughout.
As for `COc1ccc(-c2nc3ccccc3s2)cc1OC`, the TGI in experiment [1] is 88.2 µM; in experiment [8], greater than 100 µM; in [3], greater than 100 µM; in [4], greater than 100 µM; in [9], greater than 100 µM; in experiment [5], greater than 100 µM. For the same molecule, the TGI in experiment [6] and in experiment [7] was greater than 100 µM throughout.
As for `O=C1NC(O)n2c(=O)[nH]c(=O)n21` (configuration not stated), the TGI in experiment [1], in [2], in experiment [3], in experiment [4], in experiment [5] and in experiment [6] was greater than 100 µM in each case. In [7], the TGI is greater than 100 µM.
With `c1ccc2c(c1)[nH]c1c2nc2ccccn21`, the TGI in [1], in experiment [2], in [3], in experiment [4], in experiment [5] and in [6] was greater than 100 µM throughout. The molecule also returned a TGI in [7] greater than 100 µM.
On to `COc1cc(C)c2c(c1)CN1CN2Cc2cc(OC)cc(C)c21`, for which the TGI in experiment [1] is greater than 100 µM; in experiment [2] it was greater than 100 µM; in [4], greater than 100 µM; in experiment [5], greater than 100 µM; in experiment [6] it was greater than 100 µM; in experiment [7], 85.5 µM.
As for `Cc1ccc(C2=CC(=O)c3ccccc3C2=O)n1-c1ccccc1`, the TGI in [1], in experiment [2], in experiment [4], in [5] and in experiment [6] was greater than 100 µM in each case.
As for `OCc1ccc(N(Cc2ccc(F)cc2)Cc2ccc(F)cc2)cc1Cl`, the GI50 in experiment [2] was 12.4 µM; in experiment [8] it was 10.2 µM; in experiment [3], 3.74 µM; in experiment [4], 12.5 µM; in experiment [9] it was 16.2 µM; in experiment [5], 6.21 µM. For the same molecule, the GI50 in experiment [6] was 6.72 µM; in experiment [7], 3.49 µM. Also, the TGI was 26.9 µM in experiment [2]; 22.4 µM in [8]; 15.6 µM in experiment [3]; 27.8 µM in experiment [4]; 45.5 µM in experiment [9]; 20.7 µM in experiment [5]. The results for the TGI in experiment [6] and in experiment [7] were 22.1 µM and 16.2 µM, respectively.
For the molecule `COC(=O)C1C=CCC2CCCCC21N1CCCC1` (configuration not stated), the TGI in experiment [1], in [2], in experiment [3], in experiment [4], in [5] and in experiment [6] was greater than 100 µM throughout. In addition, in experiment [7], the TGI is greater than 100 µM.
As for `Cc1cc(Cl)ccc1NC(=O)CCCC(=O)C1C/C(=N/O)CC/C1=N\O` (configuration not stated), the TGI in [1], in experiment [2], in [3], in [4], in [5] and in experiment [6] was greater than 100 µM in each case. Further, the TGI in experiment [7] was greater than 100 µM.
Regarding `O=c1c2cccnc2ncn1CCCN1CCCCC1`, the TGI in experiment [1], in [2], in experiment [4], in experiment [5], in [6] and in experiment [7] was greater than 100 µM in each case.
As to `COc1ccc(-c2ccc(CC(=O)O)cc2)cc1OC`, the TGI in experiment [1], in [2], in experiment [3], in experiment [4], in experiment [5] and in experiment [6] was greater than 100 µM each time. This molecule yielded a TGI in experiment [7] greater than 100 µM.
For `Cn1c(=O)oc2cc(C3CCC(=O)N3Cc3csc(-c4ccccc4)n3)ccc21` (configuration not stated), the TGI in experiment [1], in experiment [2], in experiment [3], in experiment [4], in [5] and in experiment [6] was greater than 100 µM each time. This molecule returned a TGI in experiment [7] greater than 100 µM.
Take `N/N=C(/Cc1ccccc1)NNO`: the TGI in experiment [1], in experiment [2], in [3], in [5] and in [6] was greater than 100 µM throughout.
Turning to `Cc1cccc(C)c1NC(=O)C(=O)Cc1nc2ccccc2s1`, the TGI in experiment [1], in experiment [2], in [3], in experiment [4], in experiment [5] and in [6] was greater than 100 µM each time. In experiment [7], this molecule displayed a TGI greater than 100 µM.
On to `C1=CC(=P(c2ccccc2)(c2ccccc2)c2ccccc2)C=C1`, for which the TGI in experiment [1] was determined as 30.8 µM; in experiment [2], 75.1 µM; in experiment [3], 20.3 µM; in experiment [4], 69.2 µM; in experiment [5], 56 µM; in [6], 79.7 µM. In addition, in [7], the TGI came out at 30.8 µM.
Take `CC(=O)N1[C@H](C(=O)O)CS[C@H]1c1ccc(F)cc1`: the TGI in experiment [1], in experiment [2], in experiment [3], in experiment [4], in experiment [5] and in experiment [6] was greater than 100 µM each time. Also, the TGI in experiment [7] is greater than 100 µM.

For the origin of these results see PubChem BioAssay (NCI).
